# Assay results reported in patent US8580519B2, “Use of plasma HSP90 related to malignancy” (University of Maryland, Baltimore, priority 2006, dated 2013).
# Where two headings read alike, the source gives them in different places.
# Columns and labels:
# [1] = test system: Hsp90α; details: for plasma Hsp90α at baseline versus after sorafenib alone: day -14 versus day -1, 14 day run in of daily oral sorafenib
# Description: Human and xenograft plasma samples of 10 μL were added to sample diluent buffer and assayed in duplicate in the antibody-coated 96-well plate. After incubation at room temperature for one hour, wells were washed 6 times with washing buffer. 100 uL HRP conjugate was added to wells and incubated for one hour. Wells were washed 6 times, 100 uL TMB substrate was added to each well, and the plate was incubated for 20 minutes. Absorbance was measured at 450 nm on a plate reader.
# [2] = test system: MEXF276L cells; experiment: Immunofluorescence localization of Hsp90 isoforms α and β; assay type: cell-based, human; details: sensitive melanoma cells exposed to 17AAG, time course
# Description: (§1) Cells were treated at the respective concentrations that cause total growth inhibition (TGI) (Burger et al., 2005). […] Co-localization of proteins results in the occurrence of orange to yellow colors in merged pictures. Bar=15 μm.
# [3] = test system: MEXF276 xenograft model; details: 60 mg/kg/day i.p. on days 1-5 and 8-12; cited from earlier work
# [4] = test system: MEXF276L and MEXF514L cells; experiment: Hsp90 expression in whole cell lysates of 17AAG sensitive and resistant melanoma cell lines; assay type: cell-based, human; details: 17AAG at TGI; responsive MEXF276L, not resistant MEXF514L
# Description: as §1
# [5] = test system: MEXF276L cells; experiment: Hsp90 isoforms and MMP2 in serum-free conditioned medium, Western blot; assay type: cell-based, human
# Description: In addition, levels of matrix metalloprotease 2 (MMP2, FIG. 3B), an extracellular client protein of Hsp90α were analyzed.
# [6] = test system: MEXF276L xenografts; details: tumor-bearing mice, MEXF276L and MEXF514L, 24, 48, 72 hrs after 60 mg/kg/d
# Description: Approximately 100 μl blood was available through tail vein puncture, the 72 hr time point was collected by exsanguinations/cardiac puncture.
# [7] = test system: MEXF276L cells; experiment: Cell cycle distribution, apoptotic sub G1 fraction; assay type: cell-based, human; details: 17AAG at TGI
# [8] = nude mice, days 1-4, 15-18 i.p.; cited from earlier work
# [9] = preclinical toxicology studies; cited from earlier work
compound,measurement,setting,value
"C=CCNC1=C2C[C@@H](C)C[C@H](OC)[C@H](O)[C@@H](C)/C=C(\C)[C@H](OC(N)=O)[C@@H](OC)/C=C\C=C(/C)C(=O)NC(=CC1=O)C2=O [17AAG, 17-allylamino, 17-demethoxygeldanamycin]",evidence of clinical response in patients with increase in plasma Hsp90α,"[1]; after 17AAG administration, shrinkage in 2/3, CT attenuation consistent with tumor necrosis in 1 of 3",3/3
same,"induction of plasma Hsp90α, pre (day -1) versus post (72 hrs, day 4) treatment","[1]; cancer patients, p=0.0287",induction is significant
same,patients with increase in plasma Hsp90α,"[1]; day four, 72 hrs after first 17AAG dose, after 14 day sorafenib run in",3 of 7
same,localization of Hsp90α and Hsp90β,[2],Hsp90α is lost at 2-24 hrs
same,growth inhibition compared to control,[3],92%
same,time of actual tumor remissions,[3],10 to 17 days
same,tolerability,[3],well tolerated (no animal death)
same,cytoplasmic Hsp90 level,[4],loss of cytoplasmic Hsp90
same,Hsp90α and Hsp90β detected in the medium,[5],increased detection of Hsp90α but not Hsp90β in the medium
same,form of extracellular MMP2,[5],shift of the extracellular localized MMP2 from the fully active 66 kd form to the 72 kd latent form
same,plasma Hsp90α after treatment versus pre 17-AAG,[6],increase in plasma Hsp90α in most cases
same,apoptotic cell debris (sub G1 fraction) compared to control cells,[7],only seen at 48 hrs
CN(C)/N=N/c1[nH]cnc1C(N)=O [DTIC],maximal tolerated dose,[8],70 mg/kg/day
COC1=C2C[C@@H](C)C[C@H](OC)[C@H](O)[C@@H](C)/C=C(\C)[C@H](OC(N)=O)[C@@H](OC)/C=C\C=C(/C)C(=O)NC(=CC1=O)C2=O [Geldanamycin],hepatotoxicity,[9],severe hepatotoxicity
CNC(=O)c1cc(Oc2ccc(NC(=O)Nc3ccc(Cl)c(C(F)(F)F)c3)cc2)ccn1 [sorafenib],plasma Hsp90α at baseline versus after sorafenib alone,[1],little difference in plasma Hsp90α
same,plasma Hsp90α at baseline versus after sorafenib alone,[1]; listed as Bay 43-9006,no effects on Hsp90α
